Assay results published in patent US9695155B2, “Herbicidal substituted pyrimidinyloxy benzene compounds” (E. I. DU PONT DE NEMOURS AND COMPANY, priority 2013, dated 2017).

What was measured:
barnyardgrass [1] = assay: Test A preemergence; type: in vivo, Echinochloa crus-galli; details: for Barnyardgrass plant response rating (0 to 100 scale, 0 is no effect, 100 is complete control): 125 g ai/ha; for Barnyardgrass plant response rating: 500 g ai/ha, 0 to 100 scale where 0 is no effect and 100 is complete control
Outline: (§1)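 Compounds in non-phytotoxic solvent with surfactant applied as soil spray preemergence, or postemergence to plants 2-10 cm at one- to two-leaf stage, in loam/sand. After approximately 10 days in greenhouse, injury rated visually versus untreated controls, 0 (no effect) to 100 (complete control).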

large (Lg) crabgrass [2] = assay: Test A preemergence; type: in vivo, Digitaria sanguinalis; details: for Crabgrass, Large plant response rating (0 to 100 scale): 125 g ai/ha; for Crabgrass, Large plant response rating: 500 g ai/ha, 0 to 100 scale where 0 is no effect and 100 is complete control
Outline: as §1

giant foxtail [3] = assay: Test A preemergence; type: in vivo, Setaria faberii; details: for Foxtail, Giant plant response rating (0 to 100 scale): 125 g ai/ha; for Foxtail, Giant plant response rating: 500 g ai/ha, 0 to 100 scale where 0 is no effect and 100 is complete control
Outline: as §1

morningglory [4] = assay: Test A preemergence; type: in vivo, Ipomoea spp.; details: for Morningglory plant response rating (0 to 100 scale): 125 g ai/ha; for Morningglory plant response rating: 500 g ai/ha, 0 to 100 scale where 0 is no effect and 100 is complete control
Outline: as §1

pigweed [5] = assay: Test A preemergence; type: in vivo, Amaranthus retroflexus; details: for Pigweed plant response rating (0 to 100 scale): 125 g ai/ha; for Pigweed plant response rating: 500 g ai/ha, 0 to 100 scale where 0 is no effect and 100 is complete control
Outline: as §1

velvetleaf [6] = assay: Test A preemergence; type: in vivo, Abutilon theophrasti; details: for Velvetleaf plant response rating (0 to 100 scale): 125 g ai/ha; for Velvetleaf plant response rating: 500 g ai/ha, 0 to 100 scale where 0 is no effect and 100 is complete control
Outline: as §1

wheat [7] = assay: Test A preemergence; type: in vivo, Triticum aestivum; details: for Wheat plant response rating (0 to 100 scale): 125 g ai/ha; for Wheat plant response rating: 500 g ai/ha, 0 to 100 scale where 0 is no effect and 100 is complete control
Outline: as §1

corn [8] = assay: Test A preemergence; type: in vivo, Zea mays; details: for Corn plant response rating (0 to 100 scale): 125 g ai/ha; for Corn plant response rating: 500 g ai/ha, 0 to 100 scale where 0 is no effect and 100 is complete control
Outline: as §1

barnyardgrass [9] = assay: Test A postemergence; type: in vivo, Echinochloa crus-galli
Outline: as §1

large (Lg) crabgrass [10] = assay: Test A postemergence; type: in vivo, Digitaria sanguinalis
Outline: as §1

giant foxtail [11] = assay: Test A postemergence; type: in vivo, Setaria faberii
Outline: as §1

morningglory [12] = assay: Test A postemergence; type: in vivo, Ipomoea spp.
Outline: as §1

pigweed [13] = assay: Test A postemergence; type: in vivo, Amaranthus retroflexus
Outline: as §1

velvetleaf [14] = assay: Test A postemergence; type: in vivo, Abutilon theophrasti
Outline: as §1

wheat [15] = assay: Test A postemergence; type: in vivo, Triticum aestivum
Outline: as §1

corn [16] = assay: Test A postemergence; type: in vivo, Zea mays
Outline: as §1

rice = assay: Test B flooded paddy test; type: in vivo, Oryza sativa; details: Flood, 250 g ai/ha; 0 to 100 scale where 0 is no effect and 100 is complete control
Outline: (§2)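 Evaluation is visual, against untreated controls, 13 to 15 days after treatment. Before treatment, plants reached the 2-leaf stage; pots were then flooded 3 cm deep, compound was added to the water, and that level was maintained. Ratings run 0 to 100, with 100 meaning complete control.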

sedge, umbrella = assay: Test B flooded paddy test; type: in vivo, Cyperus difformis; details: Flood, 250 g ai/ha; 0 to 100 scale where 0 is no effect and 100 is complete control
Outline: as §2

Heteranthera limosa = assay: Test B flooded paddy test; type: in vivo; details: Flood, 250 g ai/ha; 0 to 100 scale where 0 is no effect and 100 is complete control
Outline: as §2

barnyardgrass [17] = assay: Test B flooded paddy test; type: in vivo, Echinochloa crus-galli; details: Flood, 250 g ai/ha; 0 to 100 scale where 0 is no effect and 100 is complete control
Outline: as §2

[18] = 125 g ai/ha, 0 to 100 scale, 0 no effect, 100 complete control
[19] = 500 g ai/ha, 0 to 100 scale where 0 is no effect and 100 is complete control
[20] = 125 g ai/ha, 0 to 100 scale where 0 is no effect and 100 is complete control

| SMILES | Barnyardgrass plant response rating (0 to 100 scale, 0 is no effect, 100 is complete control) (barnyardgrass [1]) | Barnyardgrass plant response rating (barnyardgrass [1]) | Crabgrass, Large plant response rating (0 to 100 scale) (large (Lg) crabgrass [2]) | Crabgrass, Large plant response rating (large (Lg) crabgrass [2]) | Foxtail, Giant plant response rating (0 to 100 scale) (giant foxtail [3]) | Foxtail, Giant plant response rating (giant foxtail [3]) | Morningglory plant response rating (0 to 100 scale) (morningglory [4]) | Morningglory plant response rating (morningglory [4]) | Pigweed plant response rating (0 to 100 scale) (pigweed [5]) | Pigweed plant response rating (pigweed [5]) | Velvetleaf plant response rating (0 to 100 scale) (velvetleaf [6]) | Velvetleaf plant response rating (velvetleaf [6]) | Wheat plant response rating (0 to 100 scale) (wheat [7]) | Wheat plant response rating (wheat [7]) | Corn plant response rating (0 to 100 scale) (corn [8]) | Corn plant response rating (corn [8]) | Plant response rating, Barnyardgrass (barnyardgrass [9]; [19]) | Plant response rating, Crabgrass, Large (large (Lg) crabgrass [10]; [19]) | Plant response rating, Foxtail, Giant (giant foxtail [11]; [19]) | Plant response rating, Morningglory (morningglory [12]; [19]) | further results |
| --- | --- | --- | --- | --- | --- | --- | --- | --- | --- | --- | --- | --- | --- | --- | --- | --- | --- | --- | --- | --- | --- |
| CNN=Cc1cccc(Oc2ncc(Cl)cn2)c1-n1cc(Cl)cn1 [Compound 296] | 0 | 10 | 0 | 60 | 0 | 10 | 0 | 0 | 0 | 90 | 0 | 10 | 0 | 0 | 0 | 0 | 0 | 0 | 0 | 20 | Plant response rating, Barnyardgrass (barnyardgrass [9]; [18]): 0; Plant response rating, Crabgrass, Large (large (Lg) crabgrass [10]; [18]): 0; Plant response rating, Foxtail, Giant (giant foxtail [11]; [18]): 0; Plant response rating, Morningglory (morningglory [12]; [18]): 20; Plant response rating, Pigweed (pigweed [13]; [18]): 30; Plant response rating, Pigweed (pigweed [13]; [19]): 100; Plant response rating, Velvetleaf (velvetleaf [14]; [18]): 30; Plant response rating, Velvetleaf (velvetleaf [14]; [19]): 30; Plant response rating, Wheat (wheat [15]; [18]): 0; Plant response rating, Wheat (wheat [15]; [19]): 20; Plant response rating, Corn (corn [16]; [18]): 0; Plant response rating, Corn (corn [16]; [19]): 10; Plant response rating, Rice (rice): 0; Plant response rating, Sedge, Umbrella (sedge, umbrella): 0; Plant response rating, Ducksalad (Heteranthera limosa): 0; Plant response rating, Barnyardgrass (barnyardgrass [17]): 0 |
| C=C(C)c1cccc(Oc2ncc(Cl)cn2)c1-n1cc(Br)cn1 [Compound 198] | 50 | 80 | 80 | 100 | 70 | 100 | 0 | 10 | 100 | 100 | 40 | 80 | 0 | 0 | 0 | 0 | 50 | 90 | 80 | 70 | Barnyardgrass plant response rating (barnyardgrass [9]; [20]): 30; Crabgrass, Large plant response rating (large (Lg) crabgrass [10]; [20]): 60; Foxtail, Giant plant response rating (giant foxtail [11]; [20]): 30; Morningglory plant response rating (morningglory [12]; [20]): 60; Pigweed plant response rating (pigweed [13]; [20]): 90; Plant response rating, Pigweed (pigweed [13]; [19]): 100; Velvetleaf plant response rating (velvetleaf [14]; [20]): 90; Plant response rating, Velvetleaf (velvetleaf [14]; [19]): 100; Wheat plant response rating (wheat [15]; [20]): 0; Plant response rating, Wheat (wheat [15]; [19]): 10; Corn plant response rating (corn [16]; [20]): 20; Plant response rating, Corn (corn [16]; [19]): 20; Plant response rating, Rice (rice): 0; Plant response rating, Sedge, Umbrella (sedge, umbrella): 20; Plant response rating, Ducksalad (Heteranthera limosa): 25; Plant response rating, Barnyardgrass (barnyardgrass [17]): 0 |
